pKi: −log10 of the molar value. Like-named read-outs stand apart in the source and are kept apart here.
What was measured:
[1] = target: homophthalazine binding site; experiment: Displacement of 3H-girisopam from the homophthalazine binding site in rat brain striatal membrane preparation; settings: displacing 5 nM 3H-girisopam
Protocol: Ki values were calculated according to the following equation: Ki = IC50 :(1 +([L])/(KD)), [formula] wherein KD is the dissociation constant of the labelled ligand-receptor complex, [L] is the concentration of the labelled ligand and IC50 is the half maximal inhibitory concentration of the test compound.

[2] = test system: spontaneous motor activity (SMA) in mice; experiment: Behavioural effects according to Irwin (decrease in spontaneous motor activity); format: in vivo; set-up: key: ++ strong; + moderate; +- slight decrease in spon-taneous motor activity [SMA]
Protocol: (§1) The behavioural effects of 1-[2'-(substituted) vinyl]-5H-2,3-benzodiazepine derivatives according to the invention and of reference substances were measured according to the method of Irwin (Psychopharmacology, 13, 222 [1968]). The results and the acute toxicity data (dead/treated animals, shown in brackets) can be seen in the following Table II
(§2) From the above Table II it can be taken that the 1-[2'-(substituted) vinyl]-5H-2,3-benzodiazepine derivatives according to the invention considerably decrease the spontaneous motor activity (SMA) in mice after intraperitoneal or oral administration.

mice [3] = experiment: Acute toxicity (dead/treated animals) in the Irwin test; format: in vivo
Protocol: as §1, §2

[4] = test system: spontaneous motor activity of mice; experiment: Inhibition of spontaneous motor activity according to Borsy et al.; format: in vivo
Protocol: (§3) The potential antipsychotic activity of 1-[2'-(substituted) vinyl]-5H-2,3-benzodiazepine derivatives according to the invention and of reference substances was tested according to the method of Puech et al. (Psychopharmacology, 75, 84, [1981] by measuring their inhibiting effect on the "climbing" reaction induced by 5,6,6a,7-tetra-(hydro)-6-(methyl)-4H-dibenzo[de,g]quinoline-10,11-di-(ol){apomorphine}. The results have been expressed as ED50 values. Since the inhibition of the spontaneous motor activity (SMA) is an important characteristic of the antipsychotic drugs, the ED50 values of a number of compounds were determined according to the method of Borsy et al. (Arch. Int. Pharmacodyn., 124, 1, 196).
The effect of the 1-[2'-(substituted) vinyl]-5H-2,3-benzodiazepine derivatives according to the invention on the spontaneous motor activity was tested according to the method of Borsy et al. Groups consisting of 3 mice were treated orally with different doses of the compounds to be tested. Then the animals were placed into a 10-channel Dews system equipment, wherein the number of interruptions of infrared beam within 30 minutes was counted. […]

[5] = test system: "climbing" reaction induced by 5,6,6a,7-tetra-(hydro)-6-(methyl)-4H-dibenzo[de,g]quinoline-10,11-di-(ol){apomorphine}; experiment: Inhibition of apomorphine-induced climbing according to Puech et al.; format: in vivo
Protocol: as §3

Catalepsy in mice = experiment: Cataleptic effect in mice (Schlichtegroll); format: in vivo; settings: p.o.
Protocol: (§4) The cataleptic effect of the compounds was measured both in mice (Schlichtegroll: Arzneim. Forsch., 8, 489, [1958]) and in rats (Morpurgo: Arch. Int. Pharmacodyn., 137, 87, [1962]).

Catalepsy in rats = experiment: Cataleptic effect in rats (Morpurgo); format: in vivo; settings: p.o.
Protocol: as §4

rats [6] = experiment: Lick-conflict test (Vogel et al.), anxiolytic activity; format: in vivo; settings: Rattus norvegicus, po, read-out: Minimal effective dose [MED] Lick conflict
Text: (§5) The anxiolytic activity was studied in rats according to the "lick-conflict" test elaborated by Vogel et al. (Psychopharmacology, 21, 1, [1971] and the elevated plus-maze test described by Pellow (Pellow, J.: Neurosci. Meth. 14, 149, [1985]). The antiaggressive effect was investigated in mice using the "fighting behaviour" method of Tedeschi (J. Pharm. Exp. Ther., 125, 28, [1959]). The minimal effective dose (MED) values and the ED50 values obtained are shown in the following Table V.

rats [7] = experiment: Elevated plus-maze test (Pellow), anxiolytic activity; format: in vivo; settings: Rattus norvegicus, ip, read-out: Minimal effective dose [MED] Elevated + Maze
Text: as §5
The anxiolytic activity of these compounds was investigated in the elevated plus maze test. Male rats belonging to the Sprague Dawley strain and weighing 220 to 260 g were used as test animals. The test was carried out with the aid of a wooden plus-shaped maze elevated to a height of 50 cm and containing two enclosed and two open arms (50 cm long and 15 cm wide). After 60 minutes pretreatment the animals were placed into the maze and observed for 5 minutes. The drug effect was expressed as percent increase of the time spent on the open arms and number of open arm entries. The minimum effective dose (MED) which caused a significant increase of the time spent on the open arms was calculated for every substance [Pelow, S., Chopin, P., File, S.E., Briley, M.: J. Neurosci. Methods 14, 149 to 167 [1985]).

mice [8] = experiment: Fighting behaviour method of Tedeschi, antiaggressive effect; format: in vivo; settings: Mus musculus, po, read-out: ED50 Fighting behaviour
Text: as §5

[9] = test system: convulsions caused by 6,7,8,9-tetrahydro-5H-tetrazoloazepine [pentetrazole]; experiment: Inhibition of pentetrazole-induced convulsions (modified method of Benziger and Hane); format: in vivo; settings: Mus musculus, po, mice, read-out: ID50 (the source's name)
Protocol: The inhibiting effect against convulsions caused by 6,7,8,9-tetrahydro-5H-tetrazoloazepine [pentetrazole] was defined by the modified method of Benziger and Hane. Groups of male and female mice belonging to the NMRI strain and weighing 20 to 25 g were used. The tonic extensor convulsions of the hind limbs caused by intraperitoneally administered 125 mg/kg of 6,7,8,9-tetrahydro-5H-tetrazoloazepine [pentetrazole] were registered on the animals of groups consisting of 6 to 12 animals. The test compounds and the carrier were administered 1 hour before administering the 6,7,8,9-tetrahydro-5H-tetrazoloazepine [pentetrazole] (Benziger, R., Hane, D.: Arch. Int. Pharmacodyn. 167, 245 [1967]).

[10] = Cataleptic effect in mice (Schlichtegroll); format: in vivo; settings: mouse, in vivo, Tables III and IV compared, read-out: dose causing catalepsy on mice relative to the spontaneous motor activity (SMA) decreasing ED50 dose
Protocol: as §4

[11] = Mus musculus, po; read-out: Spontaneous motor activity SMA ED50
[12] = po; read-out: {apomorphine} Climbing ED50
[13] = Mus musculus, po, read-out: Spontaneous motor activity SMA ED50
[14] = po, read-out: {apomorphine} Climbing ED50

| Compound | pKi [1] | Behaviour ([2]; 300 mg/kg i.p.) | Behaviour ([2]; 1000 mg/kg p.o.) | acute toxicity (dead/treated animals) (mice [3]; 300 mg/kg i.p.) | acute toxicity (dead/treated animals) (mice [3]; 1000 mg/kg p.o.) | ED50 [5, 12] [mg/kg] | Catalepsy in mice Minimal effective dose [MED] (Catalepsy in mice) [mg/kg] | Catalepsy in rats Minimal effective dose [MED] (Catalepsy in rats) [mg/kg] | minimal effective dose (rats [6]; rats) [mg/kg] | other results |
| --- | --- | --- | --- | --- | --- | --- | --- | --- | --- | --- |
| COc1ccc(C=CC2=NN=C(C)Cc3cc(OC)c(OC)cc32)cc1OC [Example 3, 1-[3',4'-Di-(methoxy)-styryl]-4-[methyl]-7,8-di-[methoxy]-5H-2,3-benzodiazepine] | 7.96 | + + | + + | 5/6 | 5/6 | 6.7 | 100 | >100 | 0.1 | ED50 [4, 11]: 8.2 mg/kg |
| COc1cc2c(cc1OC)C(C=Cc1ccc(N(C)C)cc1)=NN=C(C)C2 [Example 4, 1-[4'-(Dimethylamino)-styryl)-4-[methyl]-7,8-di-[methoxy]-5H-2,3-benzodiazepine] | 7.96 | + + | + + | 1/5 | 1/5 | 9.1 | >100 | >100 | 0.3 | ED50 [4, 11]: 4.1 mg/kg; minimal effective dose (rats [7]; rats): 5 mg/kg; ED50 (mice [8]; mice): 7.4 mg/kg |
| COc1ccc(C=CC2=NN=C(C)Cc3cc(OC)c(OC)cc32)c(OC)c1 [Example 5, 1-[2',4'-Di-(methoxy)-styryl)-4-[methyl]-7,8-di-[methoxy]-5H-2,3-benzodiazepine] | 7.74 | + + | + + | 0/5 | 0/5 | – | – | – | – | minimal effective dose (rats [7]; rats): 1.25 mg/kg; ED50 (mice [8]; mice): 15 mg/kg |
| COc1cc2c(cc1OC)C(C=Cc1cc(OC)c(OC)c(OC)c1)=NN=C(C)C2 [Example 6] | 7.96 | + | + | 0/6 | 0/6 | 15 | >100 | >100 | 1 | ED50 [4, 11]: 9.3 mg/kg |
| COc1cc2c(cc1OC)C(C=Cc1ccccc1F)=NN=C(C)C2 [Example 10] | 8.05 | + | + | 0/6 | 0/6 | – | >100 | >100 | 3 | – |
| COc1cc2c(cc1OC)C(C=Cc1ccc(C#N)cc1)=NN=C(C)C2 [Example 57] | 7.74 | – | – | – | – | – | >100 | >100 | 1 | – |
| COc1cc2c(cc1OC)C(C=Cc1cccs1)=NN=C(C)C2 [Example 70] | 7.89 | + + | + | 2/6 | 0/6 | – | >100 | >100 | 0.3 | – |
| COc1cc2c(cc1OC)C(C=Cc1ccc(N)cc1)=NN=C(C)C2 [Example 73, 1-[4'-(Amino)-styryl]-4-[methyl]-7,8-di-[methoxy]-5H-2,3-benzodiazepine] | 7.96 | – | – | – | – | 1.8 | – | – | – | minimal effective dose (rats [7]; rats): 2.5 mg/kg; ED50 (mice [8]; mice): 6.4 mg/kg |
| COc1cc2c(cc1OC)C(C=Cc1ccc(NC(C)=O)cc1)=NN=C(C)C2 [Example 84, 1-[4'-(Acetylamino)-styryl]-4-[methyl]-7,8-di-[methoxy]-5H-2,3-benzodiazepine] | 8.30 | + + | + + | 0/5 | 1/5 | 11 | – | – | – | – |
| NC(=O)N1c2ccccc2C=Cc2ccccc21 [carbamazepine, 5H-dibenz[b,f]azepine-5-carboxamide] | – | – | – | – | – | – | – | – | – | ED50 [9]: 7.1 mg/kg |
| CNC1=Nc2ccc(Cl)cc2C(c2ccccc2)=[N+]([O-])C1 [chlorodiazepoxide, 7-(chloro)-2-(methylamino)-5-(phenyl)-3H-1,4-benzodiazepine-4-(oxide), reference compound] | – | – | – | – | – | – | – | – | – | ED50 [4, 13]: 56 mg/kg; {apomorphine} Climbing ED50 ([5]; p.o.): inactive; minimal effective dose (rats [6]): 5 mg/kg; minimal effective dose (rats [7]): 2.5 mg/kg; ED50 (mice [8]): 9.2 mg/kg |
| CN(C)CCCN1c2ccccc2Sc2ccc(Cl)cc21 [chlorpromazine, 2-(chloro)-10-(3'-〈dimethylamino〉-propyl)-phenothiazine, reference compound] | – | – | – | – | – | – | 10 | 20 | – | ED50 [4, 13]: 2 mg/kg; ED50 [5, 14]: 1.1 mg/kg; selectivity ratio [10]: 5 |
| COc1cc2c(cc1OC)C(c1cccc(Cl)c1)=NN=C(C)C2 [girisopam, 1-(3'-〈chloro〉-phenyl)-4-(methyl)-7,8-di-(methoxy)-5H-2,3-benzodiazepine, reference compound] | 7.40 | +- | – | 0/6 | – | – | – | – | – | ED50 [4, 13]: 10 mg/kg; ED50 [5, 14]: 12 mg/kg; minimal effective dose (rats [6]): 10 mg/kg; minimal effective dose (rats [7]): 12.5 mg/kg; ED50 (mice [8]): 7.7 mg/kg |
| COc1cc2c(cc1OC)C(c1ccc(N)cc1)=NN=C(C)C2 [nerisopam, 1-(4'-〈amino〉-phenyl)-4-(methyl)-7,8-di-(methoxy)-5H-2,3-benzodiazepine, reference compound] | – | + + | – | 5/6 | – | – | 40 | 60 | – | ED50 [4, 13]: 2.5 mg/kg; ED50 [5, 14]: 0.9 mg/kg; minimal effective dose (rats [6]): 0.3 mg/kg; minimal effective dose (rats [7]): 0.3 mg/kg; ED50 (mice [8]): 4 mg/kg |

Source: patent publication EP0726257A1, “1-(Hetero)Arylvinyl-5H-2,3-benzodiazepine derivatives useful for the treatment of central nervous system disorders, and benzopyrylium intermediates for their preparation” (EGIS GYOGYSZERGYAR RT., priority 1995, dated 1996)
